The test concerns the target T1, PARP-1 (Homo sapiens, UniProt P09874).
T1 construct: gene PARP1
The test can be described thus: PARP-1 inhibition assay kit (Cat No. […]). The format is biochemical.

T1 sequence (P09874 2-1014): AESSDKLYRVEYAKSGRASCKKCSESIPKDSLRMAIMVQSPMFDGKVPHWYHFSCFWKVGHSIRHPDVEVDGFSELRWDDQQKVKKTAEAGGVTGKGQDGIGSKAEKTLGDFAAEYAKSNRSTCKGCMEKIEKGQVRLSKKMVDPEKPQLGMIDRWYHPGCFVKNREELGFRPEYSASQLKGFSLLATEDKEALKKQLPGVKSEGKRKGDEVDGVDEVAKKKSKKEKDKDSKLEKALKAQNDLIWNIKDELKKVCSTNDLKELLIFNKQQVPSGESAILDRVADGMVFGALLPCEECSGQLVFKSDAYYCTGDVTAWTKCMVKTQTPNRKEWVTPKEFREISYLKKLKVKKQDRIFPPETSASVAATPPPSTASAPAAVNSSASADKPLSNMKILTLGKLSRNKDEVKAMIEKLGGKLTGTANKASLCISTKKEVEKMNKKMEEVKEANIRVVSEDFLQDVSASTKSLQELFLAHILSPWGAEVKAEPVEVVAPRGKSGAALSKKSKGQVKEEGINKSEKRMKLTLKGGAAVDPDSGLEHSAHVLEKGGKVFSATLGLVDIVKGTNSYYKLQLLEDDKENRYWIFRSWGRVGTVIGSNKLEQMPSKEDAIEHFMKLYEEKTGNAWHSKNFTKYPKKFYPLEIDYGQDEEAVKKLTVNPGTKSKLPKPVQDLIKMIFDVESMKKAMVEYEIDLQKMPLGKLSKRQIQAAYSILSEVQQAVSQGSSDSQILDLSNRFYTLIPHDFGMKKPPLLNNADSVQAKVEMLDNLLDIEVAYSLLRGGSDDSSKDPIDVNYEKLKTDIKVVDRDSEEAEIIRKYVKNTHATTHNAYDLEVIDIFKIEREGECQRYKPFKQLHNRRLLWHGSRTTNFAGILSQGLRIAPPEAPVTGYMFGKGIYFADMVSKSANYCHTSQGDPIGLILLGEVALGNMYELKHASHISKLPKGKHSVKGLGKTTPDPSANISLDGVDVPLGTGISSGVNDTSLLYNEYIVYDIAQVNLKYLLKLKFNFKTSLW

On to `NNC(=O)CNC(=O)COc1cc(Cl)c(Cl)cc1Cl` [I, N-(2-hydrazineyl-2-oxoethyl)-2-(2.4.5-trichlorophenoxy) acetamide], for which the IC50 turned out to be 1.52 nM.

These data come from article PMC10674780, “In Vitro and In Vivo Effects of Synthesis Novel Phenoxyacetamide Derivatives as Potent Apoptotic Inducer against HepG2 Cells through PARP-1 Inhibition” (Pharmaceuticals, 2023).
